Laboratory results taken from the NIST ThermoML archive (doi:10.1021/acs.jced.6b00526).

Assay: xn = mol fraction of the nth substance listed
Conditions: 100 kPa, Liquid; for mass density: Vibrating tube method; for viscosity: Falling or rolling sphere viscometry

OCCCO [propan-1,3-diol] + O
Conditions | mass density, 288.15 K [kg/m3] | mass density, 293.15 K [kg/m3] | mass density, 298.15 K [kg/m3] | mass density, 303.15 K [kg/m3] | mass density, 308.15 K [kg/m3] | mass density, 313.15 K [kg/m3] | mass density, 318.15 K [kg/m3] | viscosity, 293.15 K [mPa·s] | viscosity, 298.15 K [mPa·s] | viscosity, 303.15 K [mPa·s]
x2 = 0 | 1056.2 | 1053.2 | 1049.9 | 1046.7 | 1043.5 | 1040.4 | 1037.9 | 51.55 | 40.8 | 32.74
x2 = 0.0749 | – | – | – | – | – | – | – | 46.34 | 36.93 | 29.67
x2 = 0.1625 | 1056.2 | 1053.1 | 1049.7 | 1046.4 | 1043.1 | 1039.9 | 1037.4 | 40.76 | 32.58 | 26.38
x2 = 0.1737 | 1056.2 | 1053.1 | 1049.7 | 1046.4 | 1043.1 | 1040 | 1037.4 | – | – | –
x2 = 0.2386 | 1056.4 | 1053.3 | 1049.9 | 1046.6 | 1043.2 | 1040.1 | 1037.5 | – | – | –
x2 = 0.239 | – | – | – | – | – | – | – | 35.86 | 29.01 | 23.45
x2 = 0.2519 | 1056.5 | 1053.4 | 1049.9 | 1046.6 | 1043.3 | 1040.1 | 1037.5 | – | – | –
x2 = 0.3216 | 1056.6 | 1053.5 | 1050.1 | 1046.8 | 1043.5 | 1040.2 | 1037.6 | – | – | –
x2 = 0.3361 | – | – | – | – | – | – | – | 29.72 | 24.27 | 19.97
x2 = 0.3669 | 1056.4 | 1053.3 | 1050 | 1046.7 | 1043.3 | 1040.1 | 1037.5 | – | – | –
x2 = 0.4223 | – | – | – | – | – | – | – | 24.46 | 20.06 | 16.66
x2 = 0.4238 | 1056 | 1053 | 1049.6 | 1046.4 | 1043.1 | 1039.9 | 1037.3 | – | – | –
x2 = 0.4553 | 1055.6 | 1052.6 | 1049.3 | 1046.1 | 1042.8 | 1039.6 | 1037 | – | – | –
x2 = 0.5075 | 1054.7 | 1051.8 | 1048.5 | 1045.3 | 1042.1 | 1038.9 | 1036.2 | – | – | –
x2 = 0.5134 | – | – | – | – | – | – | – | 19.25 | 15.64 | 13.18
x2 = 0.5501 | 1053.7 | 1050.8 | 1047.6 | 1044.4 | 1041.2 | 1038 | 1035.4 | – | – | –
x2 = 0.6009 | 1052.1 | 1049.2 | 1046.1 | 1042.9 | 1039.7 | 1036.5 | 1033.9 | – | – | –
x2 = 0.6309 | – | – | – | – | – | – | – | 13.16 | 10.59 | 8.95
x2 = 0.653 | 1049.9 | 1047.1 | 1043.9 | 1040.8 | 1037.6 | 1034.4 | 1031.8 | – | – | –
x2 = 0.7146 | 1046.3 | 1043.5 | 1040.4 | 1037.2 | 1034 | 1030.9 | 1028.4 | – | – | –
x2 = 0.7446 | – | – | – | – | – | – | – | 7.99 | 6.43 | 5.46
x2 = 0.7532 | 1043.2 | 1040.5 | 1037.4 | 1034.3 | 1031.1 | 1028.1 | 1025.5 | – | – | –
x2 = 0.804 | 1038.3 | 1035.5 | 1032.6 | 1029.6 | 1026.6 | 1023.5 | 1021.1 | – | – | –
x2 = 0.8508 | 1032.1 | 1029.6 | 1026.9 | 1024.1 | 1021.3 | 1018.4 | 1016.1 | – | – | –
x2 = 0.872 | – | – | – | – | – | – | – | 3.72 | 3.13 | 2.78
x2 = 0.9021 | 1023.5 | 1021.3 | 1018.9 | 1016.6 | 1014 | 1011.4 | 1009.2 | – | – | –
